Laboratory results: paper PMC6588697, “Lugdunin amplifies innate immune responses in the skin in synergy with host- and microbiota-derived factors” (Nature Communications, 2019)
“And” between values parts separate entries of the source, which are not always exact repeats. Identical values can stand only once.

Assays:
[1] = system: S. aureus; assay: Adhesion and invasion assay: S. aureus on pretreated PHKs (CFU); assay type: cell-based, Staphylococcus aureus; conditions: lugdunin alone; text to Fig 1a
Protocol: Fig. 1 Lugdunin sensitizes epithelial cells for innate immune defense. a Primary human keratinocytes (PHKs) were pretreated with S. epidermidis conditioned medium (CM), indicated lugdunin concentrations, or the combination of both for 20 h. Subsequently, cells were infected with S. aureus for 1.5 h followed by cell lysis and determination of colony-forming units (CFUs). Shown is one representative experiment of three independent experiments with six technical replicates ± s.e.m. n.s., not significant. b Dorsal skin of mice was pretreated with S. epidermidis CM, 1.5 µg lugdunin alone or in combination with S. epidermidis CM for 24 h. Subsequently, S. aureus CFUs were determined. Horizontal lines represent the mean of each group ± s.e.m. c PHKs were treated with 2 μM lugdunin or with S. epidermidis CM alone or in combination for 20 h and subsequently expression of indicated antimicrobial peptides (AMPs) (respective protein names in brackets) was analyzed and normalized to actin. Shown is one representative experiment of three independent experiments with two technical replicates ± s.e.m. d PHKs were treated with 2 µM lugdunin or 100 ng/mL Pam2Cys for 5 h and subsequently the concentration of indicated cytokines in the supernatant was analyzed by LEGENDplex^TM (BioLegend). […]

[2] = system: HNEpCs; assay: Cytokine release into HNEpC supernatant (LEGENDplex / ELISA); assay type: cell-based, human; conditions: 5 h, lugdunin 2 µM or Pam2Cys 100 ng/mL, two technical replicates, Fig 1f
[3] = system: PHKs; assay: AMP gene expression in PHKs (qRT-PCR, normalized to actin); assay type: cell-based, human; conditions: 20 h, 2 µM lugdunin and/or S. epidermidis CM, medium = 1, two technical replicates, Fig 1c
Protocol: Fig. 1 Lugdunin sensitizes epithelial cells for innate immune defense. a Primary human keratinocytes (PHKs) were pretreated with S. epidermidis conditioned medium (CM), indicated lugdunin concentrations, or the combination of both for 20 h. Subsequently, cells were infected with S. aureus for 1.5 h followed by cell lysis and determination of colony-forming units (CFUs). Shown is one representative experiment of three independent experiments with six technical replicates ± s.e.m. n.s., not significant. b Dorsal skin of mice was pretreated with S. epidermidis CM, 1.5 µg lugdunin alone or in combination with S. epidermidis CM for 24 h. Subsequently, S. aureus CFUs were determined. Horizontal lines represent the mean of each group ± s.e.m. c PHKs were treated with 2 μM lugdunin or with S. epidermidis CM alone or in combination for 20 h and subsequently expression of indicated antimicrobial peptides (AMPs) (respective protein names in brackets) was analyzed and normalized to actin. Shown is one representative experiment of three independent experiments with two technical replicates ± s.e.m. d PHKs were treated with 2 µM lugdunin or 100 ng/mL Pam2Cys for 5 h and subsequently the concentration of indicated cytokines in the supernatant was analyzed by LEGENDplex^TM (BioLegend). Shown is one representative experiment of three independent experiments with two technical replicates ± s.e.m. e PHKs were treated with increasing concentrations of lugdunin or 100 ng/mL Pam2Cys or Pam3Cys for 5 h and subsequently expression of chemokine (C-X-C motif) ligand 8 (CXCL8) was analyzed and normalized to actin. Shown is one representative experiment of three independent experiments, each with two technical replicates ± s.e.m. f, g Indicated cells were treated with 2 µM lugdunin or 100 ng/mL Pam2Cys as a positive control for 5 h and subsequently the concentration of CXCL8 (f) and interleukin-1α (IL-1α) (g) in the supernatant was analyzed by LEGENDplex^TM (BioLegend) and enzyme-linked immunosorbent assay (ELISA) (R&D Systems). Shown is one representative experiment of three independent experiments with two technical replicates ± s.e.m. Significant differences to control treatments were analyzed by ordinary one-way analysis of variance (ANOVA) followed by Dunnett’s multiple comparisons test (*P < 0.05; **P < 0.01; ***P < 0.001; ****P < 0.0001). n.d. = not detected. Source data are provided as a Source Data file
After 5 h or 20 h of peptide treatment, PHKs were washed once with PBS, followed by the addition of RNA lysis buffer directly into the well. Total RNA was extracted using the Nucleospin RNA Kit (Macherey-Nagel) according to the manufacturer’s protocol. Complementary DNA was synthesized using the Reverse-Transkriptase Kit (Thermo Scientific) with 2 µg of RNA, 4 µL of 5× RT buffer, 0.5 µL Maxima reverse transcriptase ([…]), 1 µL of random hexamer primer (100 µM), dNTP (10 mM), and RNAse-free water to a total volume of 20 µL. After pre-incubation of RNA with water for 10 min at 70 °C, master mix was added and incubated for 10 min at 25 °C, followed by 45 min at 50 °C and a final heat inactivation step for 5 min at 85 °C.
Quantitative reverse transcription-polymerase chain reaction (qRT-PCR) was performed in 10 µL reaction volume with SYBR^TM Green PCR Master Mix (Thermo Fisher) according to the manufacturer’s instructions using a LightCycler 96 (Roche Life Science). […]
11 subsequently expression of CAMP (LL-37) was analyzed and normalized to actin. […]

[4] = system: mouse skin; assay: Immunohistochemistry of mouse skin sections (LL-37, MIP-2, MPO); assay type: in vivo
Protocol: For immunohistochemical stainings of mouse skin, […] tissue sections were de-paraffinized. For MPO staining, antigen retrieval was performed in EDTA buffer at pH 9 (Thermo Fisher Scientific) for 5 min, and for MIP-2 and LL-37, citrate buffer at pH 6 for 9 min was used. Antigen retrieval was performed in a pressure cooker before a slow cooling down of the samples in the buffer. Afterwards, tissue sections were washed in PBS and blocked in 5% donkey serum in PBS containing 0.05% Triton X-100 for 90 min. For MPO staining, tissue sections were subsequently incubated overnight at 4 °C in a humid chamber with a MPO-specific antibody (R&D Systems, Cat#AF3667) diluted 1:50 in a blocking buffer. For MIP-2 and LL-37 staining, tissue sections were first incubated with primary enhancer (Lab Vision™ UltraVision™ LP Detection System, Thermo Fisher Scientific) for 20 min at room temperature, washed, and then incubated with AP polymer (Lab Vision™ UltraVision™ LP Detection System, Thermo Fisher Scientific) for 30 min at room temperature in a humid chamber, followed by incubation with the primary antibodies MIP-2 (Thermo Scientific, Cat#701126, 1:10 in blocking buffer) and LL-37 (Novus Biologicals, Cat#NB100-98689, 1:200 in blocking buffer) overnight at 4 °C in a humid chamber. The next day, tissue sections were washed and incubated with a 1:250 dilution of alkaline phosphatase-coupled secondary antibody (Novus Biologicals) for 90 min in a humid chamber at room temperature. After washing in PBS, staining was performed by using the Lab Vision^TM liquid fast red substrate system (Thermo Fisher Scientific) according to the manufacturer’s instructions. After washing in water, hematoxylin–eosin staining (Agilent/Dako) was performed for 2 min. After another washing step in water, tissue sections were mounted with Kaiser’s glycerol gelatine (Merck).

## Lugdunin
[1]
  lugdunin concentration at which pretreatment of PHKs significantly reduced the number of adhering S. aureus: ≥ 2 µM
[2]
  CXCL8 concentration in supernatant: 421.035 and 417.001
[3]
  CAMP (LL-37) expression normalized to actin: 189.36 and 213.04
  DEFB1 (HBD-1) expression normalized to actin: 1.91
  DEFB4A (HBD-2) expression normalized to actin: 0.69 and 0.77
  DEFB103A (HBD-3) expression normalized to actin: 1.53 and 1.71
  RNASE7 (RNase7) expression normalized to actin: 2.34 and 2.18
[4]; epicutaneous application, Fig 3e
  MPO-positive cells in mouse skin sections (IHC, in words): recruitment of MPO-positive cells into the dermis
[4]; epicutaneous application, Supp Fig 1
  LL-37 in mouse skin sections (IHC, in words): expression of LL-37 in keratinocytes was confirmed
[4]; epicutaneous treatment, Fig 2f
  MIP-2 in mouse skin sections (IHC, in words): MIP-2 production by keratinocytes in the epidermis and the hair follicles
